In ChEMBL document CHEMBL5465560, “Selectivity Literature for EUbOPEN Chemogenomic Library” (2024):

Key:
[1] = target: Ribosomal protein S6 kinase alpha-3 (Homo sapiens, UniProt P51812); test: Selectivity interaction (Kinase panel (KiNativ target engagement assay in Jurkat cells)) EUB0001635a RPS6KA3; assay type: cell-based; conditions: Selectivity number of off-targets 0.0, Selectivity number of targets 233.0, Source Knowledge https://www.sciencedirect.com/science/article/pii/S2451945619300674?via%3Dihub, at 1 µM
[2] = target: T1, Ephrin type-B receptor 4 (Homo sapiens) (UniProt P54760); test: Selectivity interaction (KinomeScan (DiscoverX)) EUB0000045b EPHB4
T1 sequence (whole entry): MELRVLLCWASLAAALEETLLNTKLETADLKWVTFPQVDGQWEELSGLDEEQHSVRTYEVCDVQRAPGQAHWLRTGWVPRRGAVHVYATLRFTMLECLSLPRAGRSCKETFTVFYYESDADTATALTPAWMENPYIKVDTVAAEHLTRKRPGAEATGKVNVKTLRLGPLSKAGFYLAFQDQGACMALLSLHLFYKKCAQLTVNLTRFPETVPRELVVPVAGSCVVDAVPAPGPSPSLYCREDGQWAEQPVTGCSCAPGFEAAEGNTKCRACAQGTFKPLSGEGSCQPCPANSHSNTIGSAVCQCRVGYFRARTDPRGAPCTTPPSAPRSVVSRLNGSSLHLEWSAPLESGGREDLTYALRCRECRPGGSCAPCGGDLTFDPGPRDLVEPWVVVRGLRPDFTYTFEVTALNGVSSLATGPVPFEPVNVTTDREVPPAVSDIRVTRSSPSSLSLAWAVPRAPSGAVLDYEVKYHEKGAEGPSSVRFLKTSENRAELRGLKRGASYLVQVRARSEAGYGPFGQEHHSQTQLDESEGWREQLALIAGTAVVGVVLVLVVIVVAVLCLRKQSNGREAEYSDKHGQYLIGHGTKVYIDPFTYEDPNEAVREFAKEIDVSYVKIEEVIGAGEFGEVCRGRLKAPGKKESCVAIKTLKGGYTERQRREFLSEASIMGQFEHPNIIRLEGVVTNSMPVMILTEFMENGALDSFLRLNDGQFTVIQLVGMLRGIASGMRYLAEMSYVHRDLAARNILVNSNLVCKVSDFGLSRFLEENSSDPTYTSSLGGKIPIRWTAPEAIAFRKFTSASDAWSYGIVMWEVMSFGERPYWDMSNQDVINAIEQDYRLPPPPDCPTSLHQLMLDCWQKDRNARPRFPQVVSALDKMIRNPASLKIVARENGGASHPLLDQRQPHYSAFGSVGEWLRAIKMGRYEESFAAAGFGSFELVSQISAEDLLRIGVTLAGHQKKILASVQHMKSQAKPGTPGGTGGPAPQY

[3] = target: G protein-coupled receptor kinase 4 (Homo sapiens) (UniProt P32298); test: Selectivity interaction (KinomeScan (DiscoverX)) EUB0000045b GRK4
[4] = target: Insulin-like growth factor 1 receptor (Homo sapiens, UniProt P08069); test: Selectivity interaction (KinomeScan (DiscoverX)) EUB0001079a IGF1R; conditions: at 1 µM
[5] = target: Serine/threonine-protein kinase 35 (Homo sapiens) (UniProt Q8TDR2); test: Selectivity interaction (KinomeScan (DiscoverX)) EUB0001079a STK35; conditions: at 1 µM
Misshapen-like kinase 1 = Misshapen-like kinase 1 (Homo sapiens, UniProt Q8N4C8); test: Selectivity interaction (Kinase panel (Z-LYTE Assay)) EUB0001632a MINK1; conditions: at 10 µM
[6] = target: Protein kinase C beta type (Homo sapiens, UniProt P05771); test: Selectivity interaction (Millipore kinase profiler) EUB0000124b PRKCB; conditions: at 10 µM
[7] = target: T2, Atypical kinase COQ8B, mitochondrial (Homo sapiens) (UniProt Q96D53); test: Selectivity interaction (KinomeScan (DiscoverX)) EUB0000607a ADCK4; conditions: at 10 µM
T2 sequence (whole entry): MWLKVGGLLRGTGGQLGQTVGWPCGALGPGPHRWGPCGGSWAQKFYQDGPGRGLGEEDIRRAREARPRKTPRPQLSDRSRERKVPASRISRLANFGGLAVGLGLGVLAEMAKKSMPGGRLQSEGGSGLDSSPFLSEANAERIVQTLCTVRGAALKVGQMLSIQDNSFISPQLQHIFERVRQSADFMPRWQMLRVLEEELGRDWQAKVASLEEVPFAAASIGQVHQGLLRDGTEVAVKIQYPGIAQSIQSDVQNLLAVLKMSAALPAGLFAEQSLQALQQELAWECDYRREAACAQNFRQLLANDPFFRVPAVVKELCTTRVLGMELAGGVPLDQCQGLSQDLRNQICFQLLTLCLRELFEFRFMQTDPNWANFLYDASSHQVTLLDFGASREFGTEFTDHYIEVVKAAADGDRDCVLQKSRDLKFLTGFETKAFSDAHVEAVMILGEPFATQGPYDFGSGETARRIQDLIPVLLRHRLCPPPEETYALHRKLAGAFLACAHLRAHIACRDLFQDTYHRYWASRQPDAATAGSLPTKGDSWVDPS

[8] = target: Phosphorylase b kinase gamma catalytic chain, skeletal muscle/heart isoform (Homo sapiens) (UniProt Q16816); test: Selectivity interaction (KinomeScan (DiscoverX)) EUB0000607a PHKG1; conditions: at 10 µM
[9] = target: Serine/threonine-protein kinase Nek7 (Homo sapiens) (UniProt Q8TDX7); test: Selectivity interaction (Kinase panel (DSF assay)) EUB0001558a NEK7
[10] = target: Cyclin-dependent kinase 17 (Homo sapiens) (UniProt Q00537); test: Selectivity interaction (ActivX KiNativ screen (kinase selectivity in THP-1 cell lysates)) EUB0000639a CDK17; assay type: subcellular; conditions: lysate, at 1 µM
[11] = target: Cyclin-dependent kinase-like 3 (Homo sapiens) (UniProt Q8IVW4); test: Selectivity interaction (KinomeScan (DiscoverX)) EUB0000655a CDKL3; conditions: at 10 µM
[12] = target: T3, Dual specificity mitogen-activated protein kinase kinase 6 (Homo sapiens) (UniProt P52564); conditions: at 10 µM
T3 sequence (whole entry): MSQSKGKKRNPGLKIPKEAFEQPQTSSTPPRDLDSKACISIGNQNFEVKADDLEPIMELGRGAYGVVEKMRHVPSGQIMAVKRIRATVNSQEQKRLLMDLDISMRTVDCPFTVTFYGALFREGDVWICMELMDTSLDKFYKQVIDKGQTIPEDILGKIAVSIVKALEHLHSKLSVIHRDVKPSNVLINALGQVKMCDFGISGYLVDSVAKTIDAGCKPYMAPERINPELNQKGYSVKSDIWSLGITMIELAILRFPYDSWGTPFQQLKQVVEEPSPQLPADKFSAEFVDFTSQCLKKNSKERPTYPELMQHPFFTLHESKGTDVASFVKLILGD

[13] = target: Ribosomal protein S6 kinase alpha-2 (Homo sapiens) (UniProt Q15349); test: Selectivity interaction (KinomeScan (DiscoverX)) EUB0000092b RPS6KA2; conditions: at 10 µM
[14] = target: Serine/threonine-protein kinase PAK 3 (Homo sapiens) (UniProt O75914); test: Selectivity interaction (Ambit KINOMEscan and KiNATiv profiling in Jurkat cells) EUB0000090b PAK3; assay type: cell-based; conditions: at 1 µM
Serine/threonine-protein kinase PAK 3 (Homo sapiens), sequence (O75914 whole entry, looked up): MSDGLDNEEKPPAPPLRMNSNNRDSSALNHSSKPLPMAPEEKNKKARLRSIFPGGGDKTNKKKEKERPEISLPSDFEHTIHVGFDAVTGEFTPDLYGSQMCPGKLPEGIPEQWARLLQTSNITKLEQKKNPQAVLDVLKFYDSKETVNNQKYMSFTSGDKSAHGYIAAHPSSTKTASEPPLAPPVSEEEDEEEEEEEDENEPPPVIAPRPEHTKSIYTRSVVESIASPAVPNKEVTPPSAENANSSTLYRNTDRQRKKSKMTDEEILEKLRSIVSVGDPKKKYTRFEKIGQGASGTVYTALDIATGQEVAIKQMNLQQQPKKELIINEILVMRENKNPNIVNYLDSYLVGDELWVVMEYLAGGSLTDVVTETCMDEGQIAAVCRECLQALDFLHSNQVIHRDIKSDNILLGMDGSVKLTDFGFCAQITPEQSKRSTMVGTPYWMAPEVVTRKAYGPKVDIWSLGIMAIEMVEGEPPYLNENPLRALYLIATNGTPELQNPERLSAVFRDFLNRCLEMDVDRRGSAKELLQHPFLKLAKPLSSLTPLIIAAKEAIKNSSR

G protein-coupled receptor kinase 4 (Homo sapiens), sequence (P32298 whole entry, looked up): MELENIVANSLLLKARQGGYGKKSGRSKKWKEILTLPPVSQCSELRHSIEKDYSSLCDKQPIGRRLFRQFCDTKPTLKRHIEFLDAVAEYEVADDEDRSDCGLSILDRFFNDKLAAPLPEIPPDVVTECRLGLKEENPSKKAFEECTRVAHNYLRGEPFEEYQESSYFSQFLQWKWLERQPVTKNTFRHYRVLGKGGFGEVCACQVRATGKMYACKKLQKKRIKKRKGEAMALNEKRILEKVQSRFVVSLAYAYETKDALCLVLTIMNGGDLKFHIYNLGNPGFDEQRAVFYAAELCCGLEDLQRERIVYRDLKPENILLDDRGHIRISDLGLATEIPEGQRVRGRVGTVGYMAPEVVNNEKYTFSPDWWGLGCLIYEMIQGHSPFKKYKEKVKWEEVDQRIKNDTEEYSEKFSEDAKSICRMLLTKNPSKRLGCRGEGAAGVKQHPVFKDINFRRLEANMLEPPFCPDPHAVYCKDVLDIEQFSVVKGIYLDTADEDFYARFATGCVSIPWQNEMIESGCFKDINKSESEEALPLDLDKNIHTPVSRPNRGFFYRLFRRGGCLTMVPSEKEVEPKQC
Serine/threonine-protein kinase 35 (Homo sapiens), sequence (Q8TDR2 whole entry): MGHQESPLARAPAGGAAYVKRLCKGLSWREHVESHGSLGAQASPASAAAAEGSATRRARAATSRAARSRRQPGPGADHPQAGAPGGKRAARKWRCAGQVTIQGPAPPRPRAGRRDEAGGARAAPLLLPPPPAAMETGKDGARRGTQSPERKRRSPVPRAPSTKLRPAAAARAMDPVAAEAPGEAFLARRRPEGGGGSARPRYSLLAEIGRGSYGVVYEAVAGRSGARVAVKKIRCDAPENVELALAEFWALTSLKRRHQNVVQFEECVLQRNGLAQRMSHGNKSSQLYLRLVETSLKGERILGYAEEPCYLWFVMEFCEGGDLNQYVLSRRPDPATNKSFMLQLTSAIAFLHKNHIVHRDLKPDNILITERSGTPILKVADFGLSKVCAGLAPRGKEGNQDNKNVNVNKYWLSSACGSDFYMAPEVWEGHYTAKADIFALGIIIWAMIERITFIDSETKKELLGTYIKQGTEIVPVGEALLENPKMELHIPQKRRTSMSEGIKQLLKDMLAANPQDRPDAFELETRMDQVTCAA
Protein kinase C beta type, sequence (P05771 2-671 limits assumed): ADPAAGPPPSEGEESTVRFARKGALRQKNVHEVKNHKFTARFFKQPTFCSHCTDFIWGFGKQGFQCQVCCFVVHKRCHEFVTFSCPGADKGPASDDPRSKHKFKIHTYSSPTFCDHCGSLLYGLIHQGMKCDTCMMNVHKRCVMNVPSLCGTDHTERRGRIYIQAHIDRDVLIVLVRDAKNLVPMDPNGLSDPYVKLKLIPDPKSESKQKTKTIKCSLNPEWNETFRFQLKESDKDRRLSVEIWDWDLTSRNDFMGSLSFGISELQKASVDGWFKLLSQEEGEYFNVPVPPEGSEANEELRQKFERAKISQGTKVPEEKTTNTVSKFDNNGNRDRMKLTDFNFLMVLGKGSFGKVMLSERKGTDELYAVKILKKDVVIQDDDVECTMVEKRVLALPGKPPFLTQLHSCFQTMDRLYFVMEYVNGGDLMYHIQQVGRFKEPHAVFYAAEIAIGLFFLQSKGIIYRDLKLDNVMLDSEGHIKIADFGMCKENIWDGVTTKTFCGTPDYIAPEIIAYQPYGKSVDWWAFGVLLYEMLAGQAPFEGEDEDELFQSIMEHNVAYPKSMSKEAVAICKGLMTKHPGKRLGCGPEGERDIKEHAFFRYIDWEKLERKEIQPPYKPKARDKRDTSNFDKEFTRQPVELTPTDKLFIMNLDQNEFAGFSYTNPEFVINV
Ribosomal protein S6 kinase alpha-2 (Homo sapiens), sequence (Q15349 whole entry): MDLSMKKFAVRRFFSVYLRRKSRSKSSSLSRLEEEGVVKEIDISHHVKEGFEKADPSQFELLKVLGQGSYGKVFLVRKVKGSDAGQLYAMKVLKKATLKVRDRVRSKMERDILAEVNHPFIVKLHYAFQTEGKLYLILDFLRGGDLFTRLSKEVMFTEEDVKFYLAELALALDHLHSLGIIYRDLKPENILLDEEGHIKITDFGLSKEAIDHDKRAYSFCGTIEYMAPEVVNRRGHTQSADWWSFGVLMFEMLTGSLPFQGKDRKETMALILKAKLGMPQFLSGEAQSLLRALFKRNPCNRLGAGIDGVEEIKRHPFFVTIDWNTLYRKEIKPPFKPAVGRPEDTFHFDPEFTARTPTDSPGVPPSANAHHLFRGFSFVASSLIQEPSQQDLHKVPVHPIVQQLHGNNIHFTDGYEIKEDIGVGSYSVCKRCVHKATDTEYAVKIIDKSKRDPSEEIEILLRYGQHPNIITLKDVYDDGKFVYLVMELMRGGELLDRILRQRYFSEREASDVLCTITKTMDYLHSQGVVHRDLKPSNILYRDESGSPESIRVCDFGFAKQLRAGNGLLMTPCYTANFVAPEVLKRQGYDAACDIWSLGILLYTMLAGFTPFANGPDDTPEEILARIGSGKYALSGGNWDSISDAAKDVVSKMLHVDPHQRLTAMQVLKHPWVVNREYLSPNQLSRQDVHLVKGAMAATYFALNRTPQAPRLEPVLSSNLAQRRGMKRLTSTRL
Phosphorylase b kinase gamma catalytic chain, skeletal muscle/heart isoform (Homo sapiens), sequence (Q16816 whole entry, looked up, canonical isoform): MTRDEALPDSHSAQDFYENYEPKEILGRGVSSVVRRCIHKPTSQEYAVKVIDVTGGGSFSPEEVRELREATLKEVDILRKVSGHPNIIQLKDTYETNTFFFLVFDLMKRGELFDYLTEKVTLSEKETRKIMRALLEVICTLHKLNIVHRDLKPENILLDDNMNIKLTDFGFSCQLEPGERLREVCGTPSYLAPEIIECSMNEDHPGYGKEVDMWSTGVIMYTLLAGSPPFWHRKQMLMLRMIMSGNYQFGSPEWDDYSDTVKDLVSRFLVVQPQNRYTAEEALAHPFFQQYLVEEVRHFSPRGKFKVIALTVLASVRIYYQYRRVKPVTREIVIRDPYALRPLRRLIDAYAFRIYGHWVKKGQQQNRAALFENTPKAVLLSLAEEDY
Serine/threonine-protein kinase Nek7 (Homo sapiens), sequence (Q8TDX7 whole entry, looked up): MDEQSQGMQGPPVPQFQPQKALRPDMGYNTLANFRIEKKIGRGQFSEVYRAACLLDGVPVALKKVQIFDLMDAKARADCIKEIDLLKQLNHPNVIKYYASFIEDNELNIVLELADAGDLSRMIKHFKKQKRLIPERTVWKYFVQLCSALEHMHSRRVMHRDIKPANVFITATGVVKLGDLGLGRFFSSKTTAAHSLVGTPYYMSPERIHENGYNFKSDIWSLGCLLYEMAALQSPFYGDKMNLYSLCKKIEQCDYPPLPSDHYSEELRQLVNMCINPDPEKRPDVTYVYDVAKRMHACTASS
Ribosomal protein S6 kinase alpha-3, sequence (P51812 whole entry): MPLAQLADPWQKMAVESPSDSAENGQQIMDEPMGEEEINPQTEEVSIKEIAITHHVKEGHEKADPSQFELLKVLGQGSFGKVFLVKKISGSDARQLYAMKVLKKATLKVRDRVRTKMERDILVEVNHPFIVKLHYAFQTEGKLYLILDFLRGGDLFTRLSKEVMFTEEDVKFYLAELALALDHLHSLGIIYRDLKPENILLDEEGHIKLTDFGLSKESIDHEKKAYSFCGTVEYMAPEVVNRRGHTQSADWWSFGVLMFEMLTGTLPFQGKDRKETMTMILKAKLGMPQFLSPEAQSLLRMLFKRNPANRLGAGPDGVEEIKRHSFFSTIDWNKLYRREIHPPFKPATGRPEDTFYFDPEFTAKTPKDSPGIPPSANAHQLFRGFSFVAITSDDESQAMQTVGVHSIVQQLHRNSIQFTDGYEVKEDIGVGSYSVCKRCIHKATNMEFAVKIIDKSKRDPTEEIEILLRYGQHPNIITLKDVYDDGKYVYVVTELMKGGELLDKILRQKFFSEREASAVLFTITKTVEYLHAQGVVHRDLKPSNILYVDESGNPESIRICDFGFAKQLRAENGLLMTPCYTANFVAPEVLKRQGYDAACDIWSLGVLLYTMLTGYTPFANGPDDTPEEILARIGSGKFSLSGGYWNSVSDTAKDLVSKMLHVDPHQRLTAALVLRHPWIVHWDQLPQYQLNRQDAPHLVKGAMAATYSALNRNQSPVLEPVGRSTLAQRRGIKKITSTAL
Cyclin-dependent kinase 17 (Homo sapiens), sequence (Q00537 whole entry, looked up): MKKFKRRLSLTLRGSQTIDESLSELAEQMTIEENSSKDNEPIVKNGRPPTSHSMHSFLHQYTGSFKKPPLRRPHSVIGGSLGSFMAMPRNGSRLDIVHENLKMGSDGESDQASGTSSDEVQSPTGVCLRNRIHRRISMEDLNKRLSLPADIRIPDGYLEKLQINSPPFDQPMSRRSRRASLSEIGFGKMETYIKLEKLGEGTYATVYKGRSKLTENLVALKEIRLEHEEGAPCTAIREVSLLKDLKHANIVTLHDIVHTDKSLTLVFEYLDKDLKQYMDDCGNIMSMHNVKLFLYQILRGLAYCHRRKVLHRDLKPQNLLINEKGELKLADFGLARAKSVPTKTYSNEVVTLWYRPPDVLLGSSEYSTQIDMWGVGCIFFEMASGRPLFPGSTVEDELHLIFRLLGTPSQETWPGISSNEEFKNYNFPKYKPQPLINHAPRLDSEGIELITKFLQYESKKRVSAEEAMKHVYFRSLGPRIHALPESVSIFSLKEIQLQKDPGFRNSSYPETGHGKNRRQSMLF

C=CC(=O)Nc1ccc(C(=O)Nc2[nH]nc3c2CN(C(=O)N[C@H](CN(C)C)c2ccccc2)C3(C)C)cc1
% of engagement [1]: 12%

C=CC(=O)Nc1cc(-n2c(=O)ccc3cnc4ccc(-c5ccc(NS(C)(=O)=O)cc5)cc4c32)ccc1C
% of control ([2]; at 1 µM): 100% | % of control ([2]; at 10 µM): 100% | % of control ([3]; at 1 µM): 100% | % of control ([3]; at 10 µM): 66%

Nc1cnc(N2CCc3cc(S(=O)(=O)Nc4c(F)cc(Cl)cc4F)cc(N4CCCC4=O)c32)nc1 [TP-020n]
% of control [4]: 90% | % of control [5]: 100%

Cn1cc(-n2cnc3c(NCc4nc5cc(Cl)c(Cl)cc5[nH]4)nc(N4CCOCC4)nc32)cn1
% of control (Misshapen-like kinase 1): -3.28%

CC(=O)Nc1cccc(-n2c(=O)n(C3CC3)c(=O)c3c(Nc4ccc(I)cc4F)n(C)c(=O)c(C)c32)c1
% of control [6]: 102%

CNC(=O)Nc1ccc(-c2nc(N3CC4CCC(C3)O4)c3cnn(C4CCC5(CC4)OCCO5)c3n2)cc1
% of control [7]: 100% | % of control [8]: 100%

CC(C)(O)[C@H](F)CN1Cc2cc(NC(=O)c3cnn4cccnc34)c(N3CCOCC3)cc2C1=O
dTM [9]: -0.2 K

CC[C@@H]1[C@H](F)C(=O)N[C@@H]1COc1nccc2cc(C(N)=O)c(OC)cc12 [ZIMLOVISERTIB]
% of inhibition [10]: 3.9%

CN(C)CCOc1ccc(-c2nc(-c3ccncc3)c(-c3ccc4c(c3)CC/C4=N\O)[nH]2)cc1
% of control [11]: 100%

CCN(CC)CCCCNc1ncc2cc(-c3cc(OC)cc(OC)c3)c(NC(=O)NC(C)(C)C)nc2n1
% of control [12]: 100%

CCC(=O)N1CCN(c2ccc(-n3c(=O)ccc4cnc5ccc(-c6cnc7ccccc7c6)cc5c43)cc2C(F)(F)F)CC1
% of control [13]: 100%

CN(C)C/C=C/C(=O)Nc1ccc(C(=O)N2CCCC(Nc3ncc(Cl)c(-c4c[nH]c5ccccc45)n3)C2)cc1 (configuration not stated)
% of control [14]: 80%
